Assay results: patent US8080529B2, “Macrolides with anti-inflammatory activity” (Glaxo Group Limited, priority 2005, dated 2011)
Where two headings read alike, the source gives them in different places.

Key:
TNF-α [1] = assay: Inhibition of TNF-α production by stimulated human peripheral blood leukocytes in vitro; assay type: cell-based; details: Homo sapiens, Leukocyte, read-out: Percentage of inhibition of TNF-α production
Summary of the method: (§1)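 Dextran-sedimented human PBL (3–5×10^6/well) preincubated 2 h at 37 °C with compounds at 50 μM or 10 μM, then stimulated overnight with LPS 2 μg/mL, PMA 1 μg/mL or zymosan 120 μg/mL. Supernatant cytokines quantified by sandwich ELISA; % inhibition versus stimulated untreated controls.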

IL-1α = assay: Inhibition of IL-1 production by stimulated human peripheral blood leukocytes in vitro; assay type: cell-based; details: Homo sapiens, Leukocyte, read-out: Percentage of inhibition of IL-1α production
IL-6 = assay: Inhibition of IL-6 production by stimulated human peripheral blood leukocytes in vitro; assay type: cell-based; details: Homo sapiens, Leukocyte, read-out: Percentage of inhibition of IL-6 production
Summary of the method: as §1

IL-8 = assay: Inhibition of IL-8 production by stimulated human peripheral blood leukocytes in vitro; assay type: cell-based; details: Homo sapiens, Leukocyte, read-out: Percentage of inhibition of IL-8 production
Summary of the method: as §1

[2] = tested on: human peripheral blood mononuclear cells (PBMC); assay: Effects on human T-cell proliferation in vitro (3H-thymidine incorporation); assay type: cell-based; details: Homo sapiens, PBMC, read-out: Percentage of inhibition of proliferation of stimulated PBMC
Summary of the method: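 Proliferation of human peripheral blood mononuclear cells (PBMC) was assessed in the presence of test compounds. During the final 18 h of culture each well received 1 μCi of ^3H-thymidine. Cells were then collected onto a 96-well filter with a multiple cell harvester, and ^3H-thymidine incorporation was counted on a TopCount NXT to give percentage inhibition of proliferation.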

Hep G2 = assay: Cytotoxicity assay (MTT), Hep G2 cell line; assay type: cell-based; details: 24 h
Summary of the method: (§2)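 Viability was read as MTT-formazan absorbance at 490 nm after 0.5-2 h with reagent. This followed 24 h compound exposure (50 μM, 12.5 μM) at 37° C in RPM medium. Result expressed as OD490 treated over untreated cells ×100.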

A549 = assay: Cytotoxicity assay (MTT), A549 cell line; assay type: cell-based; details: 24 h
Summary of the method: as §2

TNF-α [3] = assay: Lipopolysaccharide induced TNF-α production in Balb/cJ mice; assay type: in vivo; details: Mus musculus, ip, 1.5 h; 10 mg/kg intraperitoneally, 30 min before LPS; 90 min after LPS; read-out: % inhibition of TNF-α production (plasma)

Row | SMILES | inhibition at 10 µM (TNF-α [1]; LPS-stimulated PBL) [%] | inhibition at 10 µM (TNF-α [1]; PMA-stimulated PBL) [%] | inhibition at 10 µM (TNF-α [1]; zymosan-stimulated PBL) [%] | inhibition at 50 µM (TNF-α [1]; LPS-stimulated PBL) [%] | inhibition at 50 µM (TNF-α [1]; PMA-stimulated PBL) [%] | inhibition at 50 µM (TNF-α [1]; zymosan-stimulated PBL) [%] | inhibition at 10 µM (IL-1α; LPS-stimulated PBL) [%] | inhibition at 10 µM (IL-1α; PMA-stimulated PBL) [%] | inhibition at 10 µM (IL-1α; zymosan-stimulated PBL) [%] | inhibition at 50 µM (IL-1α; LPS-stimulated PBL) [%] | inhibition at 50 µM (IL-1α; PMA-stimulated PBL) [%] | inhibition at 50 µM (IL-1α; zymosan-stimulated PBL) [%] | inhibition at 10 µM (IL-6; LPS-stimulated PBL) [%] | inhibition at 10 µM (IL-6; PMA-stimulated PBL) [%] | inhibition at 10 µM (IL-6; zymosan-stimulated PBL) [%] | inhibition at 50 µM (IL-6; LPS-stimulated PBL) [%] | inhibition at 50 µM (IL-6; PMA-stimulated PBL) [%] | inhibition at 50 µM (IL-6; zymosan-stimulated PBL) [%] | inhibition at 10 µM (IL-8; LPS-stimulated PBL) [%] | inhibition at 10 µM (IL-8; PMA-stimulated PBL) [%] | also measured
1 | CC[C@H]1OC(=O)[C@H](C)[C@@H](O[C@H]2C[C@@](C)(OC)[C@@H](OC(=O)CCN3CCCN(CCCN4CCCC4)CC3)[C@H](C)O2)[C@H](C)[C@@H](O[C@@H]2O[C@H](C)C[C@H](N(C)C)[C@H]2O)[C@](C)(OC)C[C@@H](C)C(=O)N[C@H](C)[C@@H](O)[C@]1(C)O [Example 34] | 55 | 86 | 65 | 96 | 100 | 100 | 69 | 86 | 77 | 82 | 100 | 99 | 28 | 66 | 66 | 91 | 95 | 99 | 21 | 33 | inhibition at 10 µM (IL-8; zymosan-stimulated PBL): 32%; inhibition at 50 µM (IL-8; LPS-stimulated PBL): 87%; inhibition at 50 µM (IL-8; PMA-stimulated PBL): 76%; inhibition at 50 µM (IL-8; zymosan-stimulated PBL): 81%; inhibition at 10 µM ([2]; PHA): 66%; inhibition at 50 µM ([2]; PHA): 99%; inhibition at 10 µM ([2]; PMA + iono.): 0%; inhibition at 50 µM ([2]; PMA + iono.): 87%; Percentage of inhibition of cell growth (Hep G2; 12.5 μM): 7%; Percentage of inhibition of cell growth (Hep G2; 50 μM): 1%; Percentage of inhibition of cell growth (A549; 12.5 μM): 0%; Percentage of inhibition of cell growth (A549; 50 μM): 1%; inhibition in vivo at 10 mg/kg (TNF-α [3]): 78%
2 | CC[C@H]1OC(=O)[C@H](C)[C@@H](O[C@H]2C[C@@](C)(OC)[C@@H](OC(=O)CCN(CC)CC)[C@H](C)O2)[C@H](C)[C@@H](O[C@@H]2O[C@H](C)C[C@H](N(C)C)[C@H]2O)[C@](C)(O)C[C@@H](C)CN(C)[C@H](C)[C@@H](O)[C@]1(C)O [Example 48, 4″-O-(3-diethylamino-propionyl)-azithromycin] | 49 | 31 | 82 | 87 | 90 | 97 | 64 | 38 | 85 | 79 | 78 | 92 | 57 | 30 | 73 | 97 | 84 | 97 | 36 | 25 | inhibition at 10 µM (IL-8; zymosan-stimulated PBL): 49%; inhibition at 50 µM (IL-8; LPS-stimulated PBL): 85%; inhibition at 50 µM (IL-8; PMA-stimulated PBL): 83%; inhibition at 50 µM (IL-8; zymosan-stimulated PBL): 90%; inhibition at 10 µM ([2]; PHA): 93%; inhibition at 50 µM ([2]; PHA): 100%; inhibition at 10 µM ([2]; PMA + iono.): 81%; inhibition at 50 µM ([2]; PMA + iono.): 100%; Percentage of inhibition of cell growth (Hep G2; 12.5 μM): 0%; Percentage of inhibition of cell growth (Hep G2; 50 μM): 9%; Percentage of inhibition of cell growth (A549; 12.5 μM): 0%; Percentage of inhibition of cell growth (A549; 50 μM): 0%; inhibition in vivo at 10 mg/kg (TNF-α [3]): 52%
